Structures can show the parent of a compound that is named as a salt. Where two headings read alike, the source gives them in different places.
Legend:
Type in all cases: in vivo
[1] = tested on: wheat leaf rust, Puccinia recondita; assay: whole plant or invertebrate; settings: foliar; for pest or weed control at 280.212 g/ha: read-out: % Control (without rain), foliar, 0.25 lb.; for pest or weed control at 1120.85 g/ha: read-out: % Control (without rain), foliar, 1 lb.
[2] = tested on: wheat leaf rust, Puccinia recondita; assay: whole plant or invertebrate; settings: foliar; for pest or weed control at 280.212 g/ha: read-out: % Control (with 1" of rain), foliar, 0.25 lb., 1" of rain; for pest or weed control at 1120.85 g/ha: read-out: % Control (with 1" of rain), foliar, 1 lb., 1" of rain
[3] = tested on: wheat leaf rust, Puccinia recondita
[4] = tested on: wheat leaf rust, Puccinia recondita; assay: Foliar systemic activity on leaf rust
Source text: Another type of systemic test was run in which pots of approximately 5 inch high wheat plants were sprayed with varying concentrations of the test compound. Thirty-six hours later they were sprayed six minutes in a rain machine which amounted to about one inch of normal rainfall. The plants were then placed in a greenhouse for 7 days and then inoculated with a spore suspension of wheat leaf rust, Puccinia recondita. About 7 days later lesion counts were made on ten leaves representing the sprayed leaves and new growth from each replicate and compared with similar pots of wheat plants which were untreated with a chemical and the percent disease control determined. Disease control on the new growth is a measure of systemic activity. The commercial product known by the trademarked name Plantvax, which is 2,3-dihydro-5-carboxanilido-6-methyl-1,4-oxathiin-4,4-dioxide, was used as a standard.

SMILES | pest or weed control at 280.212 g/ha [1] | pest or weed control at 1120.85 g/ha [1] | pest or weed control at 280.212 g/ha [2] | pest or weed control at 1120.85 g/ha [2] | % Systemic Wheat Leaf Rust Control ([3]; 2.5 ppm in soil) | % Systemic Wheat Leaf Rust Control ([3]; 5 ppm in soil) | % Rust Control, New growth ([4]; 1/2 lb./100 gal.) | % Rust Control, Sprayed Leaf ([4]; 1/2 lb./100 gal.) | % Rust Control, New growth ([4]; 1/6 lb./100 gal.) | % Rust Control, Sprayed Leaf ([4]; 1/6 lb./100 gal.) | % Rust Control, New growth ([4]; 1/12 lb./100 gal.) | % Rust Control, Sprayed Leaf ([4]; 1/12 lb./100 gal.) | % Systemic Wheat Leaf Rust Control ([3]; 10 ppm in soil) | % Systemic Wheat Leaf Rust Control ([3]; 20 ppm in soil) | % Control (without rain) ([1]; 0.25 lb.) | % Control (without rain) ([1]; 1 lb.) | % Control (with 1" of rain) ([2]; 0.25 lb.) | % Control (with 1" of rain) ([2]; 1 lb.)
CCCn1cnnc1 [Example 1, 4-n-propyl-1,2,4-triazole] | 100% | 100% | 87% | 100% | 99% | 100% |  |  |  |  |  |  |  |  |  |  |  | 
CCCCn1cnnc1 [Example 3, 4-n-butyl-1,2,4-triazole] | 100% | 100% | 100% | 100% | 100% | 100% | 100% | 99% | 98% | 99% | 85% | 97% | 100% |  |  |  |  | 
CC(C)Cn1cnnc1 [Example 4, 4-isobutyl-1,2,4-triazole] | 95% | 95% | 30% | 60% |  |  |  |  |  |  |  |  |  | 100% |  |  |  | 
CC(C)CCn1cnnc1 [Example 8, 4-isopentyl-1,2,4-triazole] | 98% | 99% | 98% | 100% |  |  |  |  |  |  |  |  |  | 100% |  |  |  | 
CCCCCCn1cnnc1 [Example 9, 4-n-hexyl-1,2,4-triazole] | 100% | 100% | 100% | 100% | 77% | 92% |  |  |  |  |  |  |  |  |  |  |  | 
COCCCn1cnnc1 [Example 46, 4-(3-methoxypropyl)-1,2,4-triazole] | 100% | 100% | 99% | 100% | 96% | 99% |  |  |  |  |  |  |  |  |  |  |  | 
c1ccc(Cn2cnnc2)cc1 [Example 49, 4-benzyl-1,2,4-triazole] | 95% | 100% | 100% | 100% | 96% | 98% | 87% | 99% | 54% | 76% | 46% | 42% | 99% |  |  |  |  | 
Clc1ccc(-n2cnnc2)cc1Cl [Example 57, 4-(3,4-dichlorophenyl)-1,2,4-triazole] | 80% | 90% | 40% | 60% | 54% |  |  |  |  |  |  |  | 68% |  |  |  |  | 
Clc1ccc(-n2cnnc2)nc1 [Example 63, 4-(5-chloro-2-pyridyl)-1,2,4-triazole] | 90% | 95% | 45% | 85% |  |  |  |  |  |  |  |  |  | 95% |  |  |  | 
CCCn1cnnc1S [Example 75, 3-mercapto-4-n-propyl-1,2,4-triazole] | 91% | 100% | 100% | 99% | 40% | 82% |  |  |  |  |  |  | 84% |  |  |  |  | 
CCCCCn1cnnc1S [Example 78, 3-mercapto-4-n-pentyl-1,2,4-triazole] | 97% | 100% | 100% | 100% | 97% | 97% | 92% | 98% | 79% | 96% | 57% | 91% | 97% |  |  |  |  | 
CCCCCCn1cnnc1S [Example 79, 3-mercapto-4-n-hexyl-1,2,4-triazole] | 100% | 100% | 100% | 100% | 0% | 0% | 65% | 96% | 48% | 88% | 38% | 85% | 54% |  |  |  |  | 
Sc1nncn1Cc1ccccc1 [Example 84, 3-mercapto-4-benzyl-1,2,4-triazole] | 100% | 100% | 100% | 100% | 0% | 34% | 54% | 78% | 34% | 63% | 36% | 54% | 64% |  |  |  |  | 
CCCCn1c(S)nnc1C(=O)O [Example 95, triethanolamine salt of 3-mercapto-4-n-butyl-5-carboxy-1,2,4-triazole] |  |  |  |  | 98% | 99% | 90% | 90% | 75% | 78% | 63% | 46% | 100% |  | 98% | 99% | 100% | 100%
CCCCn1c(S)nnc1C(=O)OCC [Example 98, sodium salt of 3-mercapto-4-butyl-5-ethoxycarbonyl-1,2,4-triazole] |  |  |  |  | 85% | 97% |  |  |  |  |  |  | 99% |  | 86% | 100% | 100% | 100%
CCCCn1c(SC(=S)N(C)C)nnc1C(=O)O [Example 101, 3-dimethylthiocarbamoylmercapto-4-n-butyl-5-carboxy-1,2,4-triazole] | 100% | 100% | 100% | 100% | 88% | 96% |  |  |  |  |  |  | 100% |  |  |  |  | 
CCCCn1cnn(CCC#N)c1=S [Example 106, 2-(2-cyanoethyl)-4-n-butyl-1,2,4-triazoline-3-thione] | 100% | 100% | 99% | 100% | 82% | 86% |  |  |  |  |  |  | 92% |  |  |  |  | 
CCCCn1cnnc1SC(=O)c1ccco1 [Example 124, 3-furoylmercapto-4-n-butyl-1,2,4-triazole] | 100% | 100% | 100% | 100% | 94% | 99% |  |  |  |  |  |  | 99% |  |  |  |  | 
CCCCn1cnnc1SCC(=O)c1ccc(OC)cc1 [Example 125, 3-(p-methoxyphenacylmercapto)-4-n-butyl-1,2,4-triazole] | 50% | 60% | 20% | 30% | 55% | 68% |  |  |  |  |  |  | 44% |  |  |  |  | 
N#CCCn1ncn(-c2ccccc2)c1=S [Example 126, 2-(2-cyanoethyl)-4-phenyl-1,2,4-triazoline-3-thione] | 93% | 96% | 83% | 96% |  |  | 42% | 13% | 27% | 0% | 0% | 0% |  |  |  |  |  | 
O=[N+]([O-])c1ccc(Sc2nncn2-c2ccccc2)c([N+](=O)[O-])c1 [Example 128, 3-(2,4-dinitrophenylmercapto)-4-phenyl-1,2,4-triazole] | 100% | 100% | 84% | 90% |  |  |  |  |  |  |  |  |  |  |  |  |  | 
COc1ccc(C(=O)Sc2nncn2-c2ccccc2)cc1 [Example 129, 3-(4-methoxybenzoylmercapto)-4-phenyl-1,2,4-triazole] | 100% | 100% | 100% | 99% |  |  |  |  |  |  |  |  |  |  |  |  |  | 
